Laboratory results from patent publication US9625458B2, “Biosensor” (priority 2002, dated 2017).

Tests used:
[1] = target: T1, E. coli glutamate/aspartate binding protein (YBEJ, SEQ ID NO:3) variant Q123C, fluorophore conjugate (Escherichia coli, UniProt P37902, Q123C); experiment: Fluorimetric titration of fluorophore conjugates
T1 construct: The underlined methionine is the initiation codon for expression of YBEJ used in the study; initiation methionine (N); Gly-Ser-Gly-(His)n or Gly-Ser-(His)n (C); made in house; host or cells: E. coli BL21-DE3
Source text: (§1) Molecular Cloning. […] Amplified products were cloned into one of the protein expression vectors pAED4 (Doering, “Functional and structural studies of a small f-actin binding domain” in Ph.D. thesis, Massachusetts Institute of Technology, 1992); pKK223-3 (Brosius & Holy, Proc. Natl. Acad. Sci. USA 81:6929-6933, 1984); or pET vectors (Studier et al., Meth. Enzymol. 185:60-89, 1990) (Novagen). N-terminal oligonucleotide primers were designed to clone only the processed periplasmic form, deleting the signal sequence. The C-terminal primer was designed to append the sequence Gly-Ser-Gly-(His)n or Gly-Ser-(His)n, where n=5, 6, or 10. Two tandem stop codons (TAATGA) follow the last His codon. […] Single amino acid substitutions were generated by overlapping PCR mutagenesis (Ho et al., Gene 77:51-59, 1989). All clones and mutations were confirmed by nucleotide sequencing. In the case of arabinose BP, the single cysteine in the wild type sequence was replaced by alanine to eliminate the possibility of reporter group conjugation to this thiol (Miller et al., J. Biol. Chem. 254:7521-7528, 1979). Additionally the sequence of Fe(III) BP was mutated by substitution of Glu57 with Asp to raise the Kd to a concentration range conveniently measured using Fe(III) citrate.
(§2) Fluorophore conjugation to cysteine-substituted bPBPs. Thiol-reactive fluorophores obtained from Molecular Probes (Eugene, Oreg.) were 5-iodoacetamidofluorescein (fluorescein); N-(1-pyrene) iodoacetamide (pyrene); N,N′-dimethyl-N-(iodoacetyl)-N′-(7-nitrobenz-2-oxa-1,3-diazol-4-yl)ethylenediamide (NBD); N-((2-(iodoacetoxy)ethyl)-N-methyl)amino-7-nitrobenz-2-oxa-1,3-diazole (NBDE); and 6-acryloyl-2-dimethylaminonaphthalene (acrylodan). The styryl and naphthyl dyes JPW4039, JPW4042, and JPW4045 (FIG. 3) were synthesized at the University of Connecticut. All fluorophore conjugation steps were typically carried out at room temperature. To protein at a concentration of 100 μM was added tris-(2-carboxyethyl)phosphine HCl to a five-fold molar excess to reduce intermolecular disulfide bonds. A thiol-reactive fluorophore (20 to 25 mM in acetonitrile or dimethyl sulfoxide) was added in small aliquots to a five-fold molar excess over protein. Conjugation proceeded in the dark at room temperature for 4 hours, or overnight at 4° C. Separation of protein from unreacted fluorophore was achieved by exhaustive dialysis or by size-exclusion chromatography. The efficiency of reporter group attachment was assessed by determination of unreacted thiol with Ellman's reagent (Ellman, Arch. Biochem. Biophys. 74:443-450, 1958) or by measuring the ratio of fluorophore to protein from absorbance spectra of the purified conjugate.
(§3) Fluorimetry. All measurements were conducted with an SLM Aminco-Bowman series 2 fluorimeter, with sample stirring at 25° C. Fluorescence emission spectra were acquired with excitation and emission slit widths of 4 and 8 nm, respectively. Photomultiplier tube potential was maintained between 400 and 800 volts. Protein concentrations were in the range of 50 to 1000 nM. Fluorophore-specific excitation was at the following approximate wavelengths: tryptophan, 290 nm; acrylodan, 390 nm; fluorescein, 485 nm; pyrene, 340 nm; NBD and NBDE, 490 nm; JPW4039, 485 nm; JPW4042, 470 nm; JPW4045, 470 nm.
(§4) Corrections were made for dilution of the protein and for background signal from buffer. Binding curves were fit to binding isotherms using equation 3 or 4, as appropriate.
(§5) Analyte affinity measurements. […] The emission wavelength monitored was that of maximum difference in intensity between the ligand-free and bound states. For each conjugate, fluorescence intensiometric observations were fit to a hyperbolic binding isotherm for a two-state model (Marvin et al., Proc. Natl. Acad. Sci. USA 94:4366-4371, 1997): […]

[2] = target: T2, E. coli glutamate/aspartate binding protein (YBEJ, SEQ ID NO:3) variant T129C, fluorophore conjugate (Escherichia coli, UniProt P37902, T129C); experiment: Fluorimetric titration of fluorophore conjugates
T2 construct: The underlined methionine is the initiation codon for expression of YBEJ used in the study; initiation methionine (N); Gly-Ser-Gly-(His)n or Gly-Ser-(His)n (C); made in house; host or cells: E. coli BL21-DE3
Source text: as §1, §2, §3, §4, §5

[3] = target: E. coli glucose binding protein variant W183C, fluorophore conjugate (Escherichia coli, UniProt P0AEE5, W206C); experiment: biochemical
Description: The normal serum glucose range (euglycemia) of 4 to 6 mM is delimited by vertical lines.
as §1, §2, §3, §4
Analyte affinity measurements.

[4] = Fluorescence emission spectra without and with saturating ligand (wavelength shift, ΔIstd, ΔRmax); parameters: key to ΔIstd: intensity change at λstd normalized to average intensity; key to ΔRmax: ratio change of two emission band areas, unbound vs saturated; details: unbound vs ligand-saturated; for ΔIstd: standard intensity change; for ΔRmax: standard ratiometric change
Description: as §3
Assessment of fluorescent biosensor function. Fluorescence emission spectra of bPBP-fluorophore conjugates were recorded in the absence and presence of saturating ligand concentrations. Spectral changes were characterized by four parameters: wavelength shift (the difference between the wavelengths of emission maximum in the unbound and ligand-saturated states), direction of intensity change (increase or decrease in intensity at the wavelengths of maximum emission in the two states), standard intensity change (ΔIstd), and standard ratiometric change (ΔR). ΔIstd is defined as the normalized intensity change relative to the average intensity, determined at the wavelength mid-point between the two emission maxima:
[formula] where λstd=(λmax, unbound+λmax, saturated)/2 and I1, I2 are the fluorescence intensities at λstd of each spectrum respectively (FIG. 4A). ΔR is defined in terms of two emission bands, A1 ([λ1, λ2]) and A2 ([λ3, λ4]) (FIG. 4B):
[formula] where ^∘A1, […] the areas in the absence of ligand, and ^∞A1, ^∞A2 the areas in the presence of saturating ligand. A computer program was used to enumerate ΔR for all possible pairs of wavelength bands in the two spectra, to identify the optimal sensing condition, defined as the maximum value of ΔR. Adjustable parameters of the algorithm, and their values used for ΔRmax quantities reported here, are: step size (2 nm), step width (10 nm), minimum integration area limit (fraction of total: 0.1), and maximum integration area limit (fraction of total: 1).

Sequence of E. coli glucose binding protein variant W183C, fluorophore conjugate (P0AEE5 24-332 W206C limits assumed): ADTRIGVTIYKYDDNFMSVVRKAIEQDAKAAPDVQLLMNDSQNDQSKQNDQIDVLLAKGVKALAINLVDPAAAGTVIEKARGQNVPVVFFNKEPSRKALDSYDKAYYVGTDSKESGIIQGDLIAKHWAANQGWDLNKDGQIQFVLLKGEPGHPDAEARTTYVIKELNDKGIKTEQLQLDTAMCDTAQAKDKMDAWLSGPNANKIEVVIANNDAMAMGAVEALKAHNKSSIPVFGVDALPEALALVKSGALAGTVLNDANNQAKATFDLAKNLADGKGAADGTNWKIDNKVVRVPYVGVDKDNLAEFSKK
T2 sequence (P37902 other isoform, or with tags, fused parts or gaps T129C): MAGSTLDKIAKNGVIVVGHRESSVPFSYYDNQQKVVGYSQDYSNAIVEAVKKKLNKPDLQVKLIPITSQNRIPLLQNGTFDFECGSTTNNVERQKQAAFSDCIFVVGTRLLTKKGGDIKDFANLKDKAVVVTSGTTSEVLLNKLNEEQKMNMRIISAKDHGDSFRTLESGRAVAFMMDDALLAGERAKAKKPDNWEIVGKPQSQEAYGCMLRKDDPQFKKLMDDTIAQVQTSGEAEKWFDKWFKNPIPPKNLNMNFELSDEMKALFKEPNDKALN
T1 sequence (P37902 other isoform, or with tags, fused parts or gaps Q123C): as the sequence (P37902 other isoform, or with tags, fused parts or gaps T129C) above, with Q96C, C102T counted along it

Compound | ΔIstd [4] | ΔRmax [4] | other results
NC(=O)C[C@H](N)C(=O)O [asparagine] |  |  | Kd [1]: 0.096 mM; Kd ([2]; T129C-NBD): 0.0054 mM
OC[C@H]1OC(O)[C@H](O)[C@@H](O)[C@@H]1O (stereo partly shown) [glucose] |  |  | Kd ([3]; Kd, Acrylodan conjugate, endosteric site): 5.98 mM; Kd ([3]; Kd, Fluorescein conjugate, endosteric site): 17.6 mM; Kd ([3]; appKd, W183C-acrylodan, ratiometric, F450-459/F486-495): ~10.4 mM; Kd ([3]; appKd, W183C-acrylodan, ratiometric, F450-459/F550-559): ~5 mM; Kd ([3]; appKd, W183C-acrylodan, ratiometric, F472-481/F450-459): ~17.4 mM; Kd ([3]; dissociation constant, W183C-acrylodan): 5.98 mM
NC(=O)CC[C@H](N)C(=O)O [glutamine] |  |  | Kd [1]: 0.049 mM; Kd ([2]; T129C-JPW4039): 0.023 mM; Kd ([2]; T129C-NBD): 0.0121 mM
sulfate BP L65C Acrylodan | 0.39 | 2.95 | 
sulfate BP L65C Fluorescein | 0.39 | 1.31 | 
sulfate BP L65C JPW4042 | 0.40 | 1.82 | 
sulfate BP L65C NBD | 0.02 | 0.61 | 
sulfate BP L65C Pyrene | 0.13 | 1.20 | 
sulfate BP Q294C Acrylodan | 0.04 | 0.13 | 
sulfate BP Q294C Fluorescein | 0.00 | 0.11 | 
sulfate BP Q294C JPW4042 | 0.27 | 1.17 | 
sulfate BP Q294C NBD | 0.00 | 0.02 | 
sulfate BP Q294C Pyrene | 0.01 | 0.08 | 
sulfate BP R134C Acrylodan | 0.18 | 2.26 | 
sulfate BP R134C Fluorescein | 0.01 | 0.02 | 
sulfate BP R134C JPW4039 | 0.08 | 2.02 | 
sulfate BP R134C JPW4042 | 0.52 | 0.96 | 
sulfate BP R134C NBD | 0.58 | 0.37 | 
sulfate BP R134C Pyrene | 0.15 | 1.30 | 
sulfate BP W290C Acrylodan | 0.04 | 0.03 | 
sulfate BP W290C Fluorescein | 0.04 | 0.09 | 
sulfate BP W290C JPW4042 | 0.43 | 0.89 | 
sulfate BP W290C NBD | 0.06 | 0.11 | 
sulfate BP W290C Pyrene | 0.16 | 0.37 | 
sulfate BP Y67C Acrylodan | 0.00 | 0.12 | 
sulfate BP Y67C Fluorescein | 0.01 | 0.04 | 
sulfate BP Y67C NBD | 0.13 | 0.20 | 
sulfate BP Y67C Pyrene | 0.02 | 0.48 | 
